In US8658697B2 (priority 2004, dated 2014):
pEC50: −log10 of the molar value.

Assays:
Tacaribe virus = assay: microbe, parasite or virus in culture; type: cell-based; details: Mammarenavirus tacaribeense, Vero, 168 h, read-out: Tacaribe EC50
Candid-1 vaccine virus = assay: microbe, parasite or virus in culture; type: cell-based, Junin virus (vaccine strain); details: Mammarenavirus juninense, Vero, 168 h, read-out: Candid 1 EC50
[1] = test system: Tacaribe pseudotyped virus; assay: microbe, parasite or virus in culture; type: cell-based; details: Mammarenavirus tacaribeense, read-out: EC50 vs. pseudotyped virus (μM) Tacaribe
[2] = test system: Guanarito pseudotyped virus; assay: microbe, parasite or virus in culture; type: cell-based; details: Mammarenavirus guanaritoense, read-out: EC50 vs. pseudotyped virus (μM) Guanarito
[3] = test system: Machupo pseudotyped virus; assay: microbe, parasite or virus in culture; type: cell-based; details: Mammarenavirus machupoense, read-out: EC50 vs. pseudotyped virus (μM) Machupo
[4] = test system: Pichinde pseudotyped virus; assay: microbe, parasite or virus in culture; type: cell-based; details: read-out: EC50 vs. pseudotyped virus (μM) Pichinde
VSV pseudotyped virus = assay: microbe, parasite or virus in culture; type: cell-based; details: Vesicular stomatitis virus, read-out: EC50 vs. pseudotyped virus (μM) VSV
[5] = test system: Tacaribe virus (TRVL 11573); assay: microbe, parasite or virus in culture; type: cell-based; details: Mammarenavirus tacaribeense, Vero, read-out: Tacaribe EC50
Candide I = assay: microbe, parasite or virus in culture; type: cell-based, Junin virus (vaccine strain); details: Mammarenavirus juninense, read-out: Candide I
[6] = in vivo; cited from earlier work

SMILES	pEC50 (Tacaribe virus)	pEC50 (Candid-1 vaccine virus)	EC50 [1] [µM]	EC50 [2] [µM]	EC50 [3] [µM]	EC50 [4] [µM]	EC50 (VSV pseudotyped virus) [µM]	pEC50 [5]	pEC50 (Candide I)	adverse effects [6]
CCC(NC(=O)NNC(=O)c1ccc(Br)cc1)(C(F)(F)F)C(F)(F)F [Example 108, N-[1,1-bis(trifluoromethyl)propyl]-2-(4-bromobenzoyl)hydrazinecarboxamide]	6.00 to 6.30	5.30 to 6.00	< 0.5	< 0.5	< 0.5	1 to 5	> 5			
CCC(NC(=O)NNC(=O)c1ccccc1-c1ccccc1)(C(F)(F)F)C(F)(F)F [Example 103]	6.00 to 6.30	5.30 to 6.00	< 0.5	< 0.5	< 0.5	1 to 5	> 5			
CCC(NC(=O)NNC(=O)c1cc(OCC(F)(F)F)ccc1OCC(F)(F)F)(C(F)(F)F)C(F)(F)F [Example 99, 2-[2,5-bis(2,2,2-trifluoroethoxy)benzoyl]-N-[1,1-bis(trifluoromethyl)propyl]hydrazinecarboxamide]	> 6.30	< 5.30	< 0.5	1 to 5	0.5 to 1	1 to 5	> 5			
CC(=O)c1ccc(S(=O)(=O)NNC(=O)NC(C)(C(F)(F)F)C(F)(F)F)cc1 [Example 39, N-2-(1,1,1,3,3,3-Hexafluoro-2-methylpropyl)-2-[(4-acetylphenyl)sulfonyl]hydrazine-1-carboxamide]								5.30 to 6.00	< 5.30	
CCC(NC(=O)NNC(=O)c1cc(Cl)ccc1OC)(C(F)(F)F)C(F)(F)F [Example 112, N-[1,1-bis(trifluoromethyl)propyl]-2-(5-chloro-2-methoxybenzoyl)hydrazinecarboxamide]	> 6.30	< 5.30	< 0.5	< 0.5	< 0.5	1 to 5	> 5			
CCC(NC(=O)NNC(=O)c1cccc2ccccc12)(C(F)(F)F)C(F)(F)F [Example 102, N-[1,1-bis(trifluoromethyl)propyl]-2-(1-naphthoyl)hydrazinecarboxamide]	> 6.30	< 5.30	< 0.5	1 to 5	< 0.5	1 to 5	> 5			
CCC(NC(=O)NNC(=O)c1c(C)cc(C)cc1C)(C(F)(F)F)C(F)(F)F [Example 111, N-[1,1-bis(trifluoromethyl)propyl]-2-(mesitylcarbonyl)hydrazinecarboxamide]	5.30 to 6.00		< 0.5	0.5 to 1	< 0.5	1 to 5	> 5			
CCC(NC(=O)NNC(=O)c1ccc(Cl)c(Cl)c1)(C(F)(F)F)C(F)(F)F [Example 107, N-[1,1-bis(trifluoromethyl)propyl]-2-(3,4-dichlorobenzoyl)hydrazinecarboxamide]	6.00 to 6.30	5.30 to 6.00	< 0.5	< 0.5	< 0.5	1 to 5	> 5			
NC(=O)c1ncn([C@@H]2O[C@H](CO)[C@@H](O)[C@H]2O)n1 [ribavirin, Ribavirin]										dose-related, reversible hemolytic anemia
CCC(NC(=O)NNC(=O)c1ccc(C)cc1)(C(F)(F)F)C(F)(F)F [Example 104, N-[1,1-bis(trifluoromethyl)propyl]-2-(4-methylbenzoyl)hydrazinecarboxamide]	6.00 to 6.30	< 5.30	< 0.5	< 0.5	< 0.5	1 to 5	> 5			
CCC(NC(=O)NNC(=O)c1ccc2ccccc2c1)(C(F)(F)F)C(F)(F)F [Example 105, N-[1,1-bis(trifluoromethyl)propyl]-2-(2-naphthoyl)hydrazinecarboxamide]	> 6.30	5.30 to 6.00	< 0.5	< 0.5	< 0.5	1 to 5	> 5			
CCC(NC(=O)NNC(=O)c1cc(OC)ccc1OC)(C(F)(F)F)C(F)(F)F [Example 106, N-[1,1-bis(trifluoromethyl)propyl]-2-(2,5-dimethoxybenzoyl)hydrazinecarboxamide]	> 6.30	5.30 to 6.00	< 0.5	< 0.5	< 0.5	> 5	> 5			
CCC(NC(=O)NNC(=O)c1ccc(-c2ccccc2)cc1)(C(F)(F)F)C(F)(F)F [Example 101, 2-(1,1′-biphenyl-4-ylcarbonyl)-N-[1,1-bis(trifluoromethyl)propyl] hydrazinecarboxamide]	> 6.30	5.30 to 6.00	< 0.5	< 0.5	< 0.5	0.5 to 1	> 5			
CCC(NC(=O)NNC(=O)c1ccc(C(C)(C)C)cc1)(C(F)(F)F)C(F)(F)F [Example 100, N-[1,1-bis(trifluoromethyl)propyl]-2-(4-tert-butylbenzoyl)hydrazinecarboxamide]	> 6.30	5.30 to 6.00	< 0.5	< 0.5	< 0.5	1 to 5	> 5			
CCC(NC(=O)NNC(=O)c1ccc(C(C)C)cc1)(C(F)(F)F)C(F)(F)F [Example 109, N-[1,1-bis(trifluoromethyl)propyl]-2-(4-isopropylbenzoyl)hydrazinecarboxamide]	> 6.30	5.30 to 6.00	< 0.5	< 0.5	< 0.5	> 5	> 5			
CCC(NC(=O)NNC(=O)c1cc(C)cc(C)c1)(C(F)(F)F)C(F)(F)F [Example 110, N-[1,1-bis(trifluoromethyl)propyl]-2-(3,5-dimethylbenzoyl)hydrazinecarboxamide]	> 6.30	5.30 to 6.00	< 0.5	0.5 to 1	< 0.5	1 to 5	> 5			
CC(NC(=O)Nc1ccc(OC(F)(F)F)cc1)(C(F)(F)F)C(F)(F)F [Example 69, 1-(4-Trifluoromethoxyphenyl)-3-(2,2,2-trifluoro-1-methyl-1-trifluoromethylethyl)-urea]								5.30 to 6.00		
CC(NC(=O)NNS(=O)(=O)c1ccc(Cl)cc1Cl)(C(F)(F)F)C(F)(F)F [Example 29, N-2-(1,1,1,3,3,3-Hexafluoro-2-methylpropyl)-2-[(2,4-dichlorophenyl)sulfonyl]hydrazine-1-carboxamide]								5.30 to 6.00		
CC(NC(=O)Nc1ccc(Br)cc1OC(F)(F)F)(C(F)(F)F)C(F)(F)F [Example 95, 1-(4-Bromo-2-trifluoromethoxyphenyl)-3-(2,2,2-trifluoro-1-methyl-1-trifluoromethylethyl)-urea]								< 5.30		
CC(NC(=O)N1CCCCCC1)(C(F)(F)F)C(F)(F)F [Example 94, Azepane-1-carboxylic acid (2,2,2-trifluoro-1-methyl-1-trifluoromethylethyl)-amide]								< 5.30		
CC(NC(=O)NNS(C)(=O)=O)(C(F)(F)F)C(F)(F)F [Example 50, N-2-(1,1,1,3,3,3-Hexafluoro-2-methylpropyl)-2-[methylsulfonyl]hydrazine-1-carboxamide]								< 5.30		
CC(NC(=O)NNS(=O)(=O)c1ccc(S(=O)(=O)N2CCCC2)cc1)(C(F)(F)F)C(F)(F)F [Example 25, N-2-(1,1,1,3,3,3-Hexafluoro-2-methylpropyl)-2-[4-(pyrrolidin-1-sulfonyl)phenylsulfonyl]hydrazine-1-carboxamide]								5.30 to 6.00		
Cc1cc(C)c(S(=O)(=O)NNC(=O)NC(C)(C(F)(F)F)C(F)(F)F)c(C)c1 [Example 5, N-2-(1,1,1,3,3,3-Hexafluoro-2-methylpropyl)-2-[(2,4,6-trimethylphenyl)sulfonyl)hydrazine-1-carboxamide]								> 6.30		
Cc1nn(C)c(Cl)c1S(=O)(=O)NNC(=O)NC(C)(C(F)(F)F)C(F)(F)F [Example 21, N-2-(1,1,1,3,3,3-Hexafluoro-2-methylpropyl)-2-[2-(5-chloro-1,3-dimethyl-1H-pyrazolyl)sulfonyl]hydrazine-1-carboxamide]								6.00 to 6.30	5.30 to 6.00	
CC(NC(=O)Nc1ccccc1)(C(F)(F)F)C(F)(F)F [Example 75, 1-Phenyl-3-(2,2,2-trifluoro-1-methyl-1-trifluoromethylethyl)-urea]								5.30 to 6.00		
COc1ccccc1NC(=O)NC(C)(C(F)(F)F)C(F)(F)F [Example 98, 1-(2-Methoxyphenyl)-3-(2,2,2-trifluoro-1-methyl-1-trifluoromethylethyl)-urea]								< 5.30		
CC(NC(=O)Nc1cccc(S(N)(=O)=O)c1)(C(F)(F)F)C(F)(F)F [Example 79, 3-[3-(1,1-Bis-trifluoromethylethyl)-ureido]benzenesulfonamide]								5.30 to 6.00		
CC(NC(=O)NNS(=O)(=O)c1ccc(N2CCOCC2)nc1)(C(F)(F)F)C(F)(F)F [Example 27, N-2-(1,1,1,3,3,3-Hexafluoro-2-methylpropyl)-2-(2-(5-morpholin-4-yl)pyridylsulfonyl]hydrazine-1-carboxamide]								5.30 to 6.00		
